The experiment deals with Female Wistar rats. The experiment in a line: Partial restraint stress-induced hyperalgesia model. It counts as in vivo, rat. The note with it: 3 mg/kg or 10 mg/kg SC one hour prior to 2 h PRS, CRD 15 minutes after PRS. Here is the method:
Female Wistar rats surgically prepared for electromyography as described in Example 1 were used to evaluate the effects of the FAAH inhibitors (a) compound A or (b) compound B, on colorectal sensitivity and compliance after a 2 hour partial restraint stress session.
Partial restraint stress (PRS), a relatively mild stress, was induced as previously described (Morteau et al. Dig. Dis. Sci. 1994: 39:1239-48; “Guanylate cyclase C-mediated antinociceptive effects of linaclotide in rodent models of visceral pain”, Eutamene H, Bradesi S, Larauche M, Theodorou V, Beaufrand C, Ohning G, Fioramonti J, Cohen M, Bryant A P, Kurtz C, Currie M G, Mayer E A, Bueno L, Neurogastroenterology and motility —2010 Volume: 22 p. 312-322; “Stress-induced changes in intestinal transit in the rat: a model for irritable bowel syndrome”, Williams C L, Villar R G, Peterson J M, Burks T F, Gastroenterology—1988 p. 611-21). Female rats were lightly anesthetized with diethyl ether and their shoulders, upper forelimbs and thoracic trunk were wrapped in a confining harness of paper tape to restrict, but not prevent body movements. Control sham-stress animals were anesthetized but not wrapped. […]
Rats were treated orally with compound A (30 mg/kg in DMSO/cremophor/isotonic saline (1:1:8 v:v:v), n=8), or vehicle only (DMSO/cremophor/isotonic saline (1:1:8 v:v:v), 1 mL, n=9) with or without 2 hour PRS sessions. The number of abdominal contractions was recorded by electromyography per 5-minute period (y axis) for each distension pressure of 0 mmHg, 15 mmHg, 30 mmHg, 45 mmHg and 60 mmHg (x axis); the ? symbols represent the results for the control+vehicle group (n=9); the symbols ? represent the results for the stress+vehicle group (n=9); the symbols ? represent the results for the stress+compound A group (n=8). Data are mean values with SEM.
Rats were treated orally with compound B (30 mg/kg in DMSO/cremophor/isotonic saline (1:1:8 v:v:v), n=9), or vehicle only (DMSO/cremophor/isotonic saline (1:1:8 v:v:v), 1 mL, n=9) with or without 2 hour PRS sessions. The number of abdominal contractions was recorded by electromyography per 5-minute period (y axis) for each distension pressure of 0 mmHg, 15 mmHg, 30 mmHg, 45 mmHg and 60 mmHg (x axis); the symbols ? represent the results for the control+vehicle group (n=9); the symbols ? represent the results for the stress+vehicle group (n=9); and the symbols ? represent the results for the stress+compound B group (n=9). Data are mean values with SEM.
The effect of FAAH inhibitor URB597 was tested at 3 mg/kg and 10 mg/kg in the PRS model of visceral hyperalgesia essentially as described in Examples 1 and 2. URB597 was formulated as a suspension in vehicle [DMSO/cremophor/isotonic saline (1:1:8 v:v:v)]. […]

Molecules are shown by their SMILES.

As to `NC(=O)c1cccc(-c2cccc(OC(=O)NC3CCCCC3)c2)c1` [URB597, 3′-(aminocarbonyl) biphenyl-3-yl cyclohexyl carbamate, reference compound], the “number of abdominal contractions (antihyperalgesic effect) in PRS model” value is recorded as “did not exhibit an antihyperalgesic effects”. Moreover, the “number of abdominal contractions (antihyperalgesic effect) in PRS model” value (listed as URB-597) was “no differences in number of abdominal contractions were observed”.

The values above are taken from patent US20130224151A1, “Use of FAAH Inhibitors for Treating Abdominal, Visceral and Pelvic Pain” (UNITED STATES OF AMERICA, priority 2010, published 2013).
